Patent US6369101B1, “Therapeutic method to treat herpes virus infection” (Regents of the University of Minnesota, priority 1999, dated 2002)
≈ marks a conversion by molar mass, not a printed value. One block for each molecule: values may come before it.

Key:
Mouse Cytomegalovirus = assay: CPE inhibition in stationary cells (visual), MCMV in MEF cells; type: cell-based; details: test compounds in DMSO
Vero cells = assay: Cytotoxic effect in Vero cell line; type: cell-based, African green monkey; details: Vero cell line
Experimental: (§1) Human laryngeal epithelial carcinoma cells (HEp-2, ATCC, Rockville, Md.) were used for testing of antiviral compounds by cytopathic effect (CPE) inhibition and plaque reduction assay. […] HEp-2, African green monkey kidney cells (Vero, ATCC), HFF and primary rabbit kidney cells were used to determine the cytotoxic effect of compounds of formula I. These cells were propagated in Dulbeco's modified Eagle's medium (DMEM) (Sigma, USA) supplemented with 10% inactivated fetal calf serum (FCS), 25 mM HEPES, 0.2% sodium bicarbonate and 1% penicillin/-streptomycin at 37° C. in the presence of 5% CO2.
(§2) HFF, Vero and HEp-2 cells were seeded in 24-well tissue culture plates at a concentration of […] in DMEM containing 10% FCS and incubated for 24 hours at 37° C. in the presence of 5% CO2. To the monolayer of these cells 0.5, 1.0, 1.5 and 2.0 ml of solution of antiviral compounds were added in the respective wells in duplicate and the cells were then incubated in a 5% CO2 incubator at 37° C. for 72 hours. The cells were observed daily for any change in morphology. […] At the end of this time, the media-drug solution was removed and the cells washed. One ml of 0.25% trypsin was added to each well and incubated until the cells start to come off of the plate. The cells-media mixture was then pipetted up and down several times to resuspend the cells and 0.2 ml of the cell suspension was added to 9.8 ml of trypan blue and cells were counted using hemocytometer. Each sample was counted three times with three replicate wells per sample.

Varicella-Zoster Virus = assay: CPE inhibition in stationary cells (visual), VZV in HFF cells; type: cell-based; details: test compounds in DMSO
[1] = tested on: Primary human foreskin fibroblast cells (HFF); assay: Cell proliferation assay (cytotoxicity) in HFF cells; type: cell-based; details: for CC50: Human foreskin fibroblast cells, reduces growth of uninfected cells by 50%
HSV-2 (MS strain) [2] = assay: Vaginal HSV-2 (MS) infection in guinea pigs, topical ointment; type: in vivo, guinea pig
Experimental: Female Hartley outbred guinea pigs 26 days old and weighing approximately 350 to 400 grams each were obtained from Charles River Breeding Labs, Wilmington, Mass. The animals were housed singly and given feed and water ad lib.
2% Betulin and allobetulin ointment were prepared aseptically in polyethylene glycol (PEG) as ointment base and stored at room temperature until used.
Female guinea pigs weighing 200 g were inoculated intravaginally with HSV-2 (MS strain). One hour before viral inoculation the animals were swabbed using Dacron-polyester tipped applicator moistened in sterile saline to remove vaginal secretions. The animals were then infected with one drop of HSV-2 suspension containing 1×10^4 pfu, and the surface of the vaginal mucosa was slightly scarified with a sterile Greer Derma Pick® Skin Testing System (Greer Labs, Lenoir, N.C.).
The treatment of infected guinea pigs was started 18 hours after infection and continued twice daily for 3 days. […] Each experiment included uninfected control, infected and placebo controls. […] The swabs were stored at −80° C. until analyzed. The virus content of the specimens was measured by plaque assay in HEp-2 cells and the mean virus titer was calculated. […] The variable assessed was typical HSV vesicle formation, size, number and whether confluent, induration at the site of infection and scab formation.

[3] = tested on: Primary Rabbit Kidney cells; assay: Cytotoxic effect in primary rabbit kidney cells; type: cell-based; details: for CC50: Primary Rabbit Kidney cell line
Experimental: as §1, §2

[4] = tested on: Human laryngeal epithelial carcinoma cells (HEp-2); assay: Cytotoxicity in HEp-2 cells; type: cell-based
HSV-2 strain G = assay: CPE inhibition, HSV-2 strain G in HEp-2 cells; on Cytopathic Effect (CPE) Inhibition HSV-2 Strain G: key: +++ = Complete cytopathic effect; ++ = Moderate cytopathic effect; + = Minimum cytopathic effect; − = No cytopathic effect; type: cell-based, herpes simplex virus type 2; details: for Cytopathic Effect (CPE) Inhibition HSV-2 Strain G: conc. per compound (ng/ml)
Human Cytomegalovirus = assay: CPE inhibition in stationary cells (visual), HCMV in HFF cells; type: cell-based; details: test compounds in DMSO
HSV-2 (MS Strain) [5] = assay: Cutaneous HSV-2 infection in rats, topical ointment; type: in vivo, rat; details: topical 2% ointment twice daily for 3 days
MEF cells = assay: CC50 in MEF cells (Table 3); type: cell-based; details: Mouse Cytomegalovirus section of Table 3
Epstein-Barr Virus = assay: VCA expression in EBV-infected Daudi cells; details: Epstein-Barr Virus, Daudi cells, VCA; test compounds in DMSO
Description: Raji is a Burkitt's lymphoma cell line containing 60 EBV genome/cell, and was the primary cell used for screening antiviral activity against EBV early antigen (EA) expression. […] It spontaneously expresses EBV EA in 0.25-0.5% of the cells. It was used in follow-up studies to confirm activity. These cell lines respond to superinfection by EBV by expressing EA-diffuse component EA (D), EA restricted component EA (R), and viral capsid antigen (VCA). […] The cultures were fed twice weekly and the cell concentration was adjusted to 3×10^5/ml. The cells were kept at 37° C. in humidified atmosphere with 5% CO2.
Cells were infected with the P3HR-1 strain of HBV and the test compound was added after adsorption (45 minutes at 37° C.) and washing of the cell cultures. The cultures were incubated for two days in complete medium to allow viral gene expression. Following the 48 hours of incubation, the numbers of cells of each sample was counted and smears were made. Monoclonal antibodies to the different EA components and VCA were then added to the cells and then incubated and washed. This is followed by a fluorescein conjugated rabbit anti-mouse IgG antibody, and the number of fluorescence cells in the smear were counted. The total number of cells in the cultures positive for EA or VCA were then calculated and compared.

Daudi cells = assay: CC50 in Daudi cells (Table 3); type: cell-based; details: Daudi cells, Epstein-Barr Virus section of Table 3
Experimental: Raji is a Burkitt's lymphoma cell line containing 60 EBV genome/cell, and was the primary cell used for screening antiviral activity against EBV early antigen (EA) expression. Daudi is a low level producer that contains 152 EBV genome copies/cell. It spontaneously expresses EBV EA in 0.25-0.5% of the cells. It was used in follow-up studies to confirm activity. […] All cell lines were maintained in RPMI-1640 medium supplemented with 10% FCS, L-glutamine and 100 μg/ml gentamicin. The cultures were fed twice weekly and the cell concentration was adjusted to 3×10^5/ml. The cells were kept at 37° C. in humidified atmosphere with 5% CO2.

Molecule: C=C(C)[C@@H]1CC[C@]2(CO)CC[C@]3(C)[C@H](CC[C@@H]4[C@@]5(C)CC[C@H](O)C(C)(C)[C@@H]5CC[C@]43C)[C@@H]12 [Betulin, lup-20(29)-ene-3β, 28-diol, reference compound]
- EC50 (Mouse Cytomegalovirus): >0.02 µg/mL
- CC50 (Vero cells): 0.125 µg/mL (≈ 0.282 µM)
- EC50 (Varicella-Zoster Virus): >0.004 µg/mL
- cytotoxicity (in words) ([1]; HFF cells): more toxic
- Qualitative Cytotoxic Effect at 2.0 ml dose ([1]; HFF cells, solution conc. per compound (ng/ml) (Acyclovir 250), 2.0 ml dose): −
- CC50 [1]: 250 ng/mL (≈ 0.565 µM)
- effect on vaginal HSV-2 infection (in words) (HSV-2 (MS strain) [2]; 2% ointment twice daily for 3 days beginning 18 hours after infection): Significant effect
- typical lesions and virus content in the infected vaginal area (HSV-2 (MS strain) [2]; by 6 to 8 days, 2% ointment twice daily for 3 days): decreased significantly
- CC50 [3]: >0.25 µg/mL
- cytotoxicity (in words) ([3]; primary rabbit kidney cells): No cytotoxicity
- cytotoxicity (in words) ([4]; HEp-2 (human epithelial) cells): less cytotoxicity
- Cell Cytotoxicity ([4]; HEp-2 cells, conc. per compound (ng/ml)): −
- Cytopathic Effect (CPE) Inhibition HSV-2 Strain G (HSV-2 strain G): +
- anti HSV-2 activity (in words) (HSV-2 strain G; qualitative CPE inhibition assay): significant anti HSV-2 activity
- EC50 (Human Cytomegalovirus): 0.0029 µg/mL (≈ 0.00655 µM)
- effect on cutaneous HSV-2 infection (in words) (HSV-2 (MS Strain) [5]): significant effect
- CC50 (MEF cells): 0.08 µg/mL (≈ 0.181 µM)

- EC50 (Epstein-Barr Virus): 1.4 µg/mL
Molecule: acycloguanosine [Acyclovir, reference compound]
- CC50 (Vero cells): 0.25 µg/mL
- CC50 ([1]; listed as Acyclovir ®): >12500 ng/mL
- CC50 ([1]; listed as Acyclovir®): > 12,500 ng/ml
- CC50 [3]: >0.25 µg/mL
- Cytopathic Effect (CPE) Inhibition HSV-2 Strain G (HSV-2 strain G): +++
- CC50 (Daudi cells): >100 µg/mL
